The text below walks through data of patent publication US20250154105A1, “POLYCYCLIC COMPOUND AND USE THEREOF” (TYK MEDICINES, INC., priority 2021, published 2025).

pIC50: −log10 of the molar value. A value given as a limit tells only on which side of the number the result lay.

Experiment [1] relates to human pleural mesothelioma cells NCI-H226. The experiment in a line: Cell anti-proliferation experiment (CCK8), NCI-H226. The experiment is classed as cell-based. From the text: TEST EXAMPLE 1 CELL ANTI-PROLIFERATION EXPERIMENT
Determination of proliferation inhibition of YAP-TEAD inhibitor compounds on human pleural mesothelioma cells NCI-H226
Experimental materials and equipments: Human pleural mesothelioma cells NCI-H226 was purchased from NANJING COBIOER BIOSCIENCES CO., LTD. RPMI-1640 medium (Bio-Channel), DMSO (dimethyl sulfoxide), CCK8 (WST-8) Cell Assay Kit (Beyotime), 0.25% EDTA-Tripsin (trypsin digest), 1×PBS (phosphate buffer, PH7.2), 96-well plate (Corning), fetal bovine serum (FBS), 10,000 U/mL penicillin-G/streptomycin, high-speed freezing centrifuge (EPPENDORF 5810R), enzyme-linked immunosorbent assay (Tecan Spark).
1. Cell plating • A) Tumor cells were cultured to 80-90% density in RPMI-1640 (containing 10% FBS and 100 U/mL penicillin-G/streptomycin) under the condition of 37° C., 5% CO2 and saturated humidity. • B) The culture medium was removed from the 10 cm culture dish. • C) Cells were washed with 10 ml 1×PBS. • D) 4 ml of 0.25% EDTA-Tripsin was added to digest pancreatin for 5 minutes in an incubator at 37° C. and 5% CO2. Then the mixture was transferred to a 15 ml centrifuge tube, and centrifuged for 5 minutes at 200 g. The supernatant was discarded to obtain cell precipitation. • E) The cell precipitation was resuspended with 4 ml of […], counted and adjusted to 10,000 cells/ml. • F) The cell suspension was added to a 96-well plate with a volume of 100 μL per well and cultured overnight in an incubator at 37° C. and 5% CO2.
• Compound dilution • A) Preparation of gradient dilution solutions of the tested compounds: the tested compounds was configured to 1 mM stock solution. Then […] of stock solution was dissolved in 1.5 ml of DMSO-free culture solution, and then 3-fold continuous gradient dilution with 0.1% DMSO culture solution was performed to get a total of 9 concentrations. The diluted concentrations of the compound were as follows: 333.33 nM, 111.11 nM, 37.03 nM, 12.35 nM, 4.15 nM, 1.37 nM, 0.46 nM, 0.15 nM • B) After full mixing, 100 μL of culture compound solution was taken to replace the culture solution in the cell culture plate, with 4 duplicated wells at each concentration; • C) The cells were transferred to the incubator to incubate for 3 days.
• A) the cell culture plate was taken out and added with 10 μl of CCK-8 (WST-8) solution per well in the biosafety cabinet; • B) The cell culture plate was put back into the incubator and continued to incubate for 3 hours; • C) 450 nm wavelength was selected to measure absorbance value on TECAN enzyme linked immunosorbent assay detector.
The following formula was used to calculate the cell viability (% Cell Viability); • Cell Viability (%)=[A(Drug-added)-A(Blank)]/[A(0 Drug-added)-A(blank)][…] • A (Drug-added): The absorbance of wells containing cells, CCK8 solution, and drug solution. • A (Blank): The absorbance of wells containing culture medium and CCK8 solution, but without cells. • A (0 Drug-added): The absorbance of wells containing cells, CCK8 solution, but without drug solution. • Cell viability: Cell proliferation viability or cytotoxicity viability was determined by the IC50 value obtained by curve fitting using GraphPad Prism 8 software.

The next experiment concerns YAP-TEAD. The experiment in a line: YAP-TEAD inhibitor activity by Nano luciferase method (8xGTiiC-nLuc reporter in 293T cells). In kind it is cell-based. To be noted: Homo sapiens, HEK-293T, 48 hours incubation, read-out: Nano-luciferase detection (IC50). The gist of the method:
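IC50 derived from nLuc reporter signal normalised to 0 nM wells, after 48 h, 37 °C compound exposure (1:3.16 series, highest 10,000 nM). Cells: 293T transfected with 8xGTiiC-nLuc/CMV-fLuc plasmid, plated at 2000 per well.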

One may read the pIC50 as the IC50 on a negative log10 scale, so that one unit is a factor of ten. `Cn1cc2c(=O)n(-c3ccc(C(F)(F)F)cc3)c3ccc(C(=O)Nc4c[nH]cn4)cc3c2n1` [Example T-121]: the pIC50 (in experiment [1]; in the experiment with YAP-TEAD) was 5.30 to 6.00 throughout.
Turning to `C[C@H](NC(=O)c1ccc2c(c1)c1nn(C)cc1c(=O)n2-c1ccc(C(F)(F)F)cc1)c1ccc(C(F)(F)F)cn1` [Example T-123], the pIC50 (in experiment [1]; in the experiment with YAP-TEAD) was 5.30 to 6.00 throughout.
For the molecule `Cc1ccc([C@H](C)NC(=O)c2ccc3c(c2)c2nn(C)cc2c(=O)n3-c2ccc(C(F)(F)F)cc2)nc1` [Example T-124], the pIC50 (in experiment [1]; with YAP-TEAD) was 5.30 to 6.00 throughout.
Take `C[C@@H](NC(=O)c1ccc2c(c1)c1nn(C)cc1c(=O)n2-c1ccc(C(F)(F)F)cc1)c1ncccc1F` [Example T-125]: the pIC50 (in experiment [1]; in the experiment with YAP-TEAD) was 5.30 to 6.00 each time.
As to `C[C@H](NC(=O)c1ccc2c(c1)c1nn(C)cc1c(=O)n2-c1ccc(C(F)(F)F)cc1)c1ncccc1F` [Example T-126], the negative-log IC50 (pIC50) (in experiment [1]; in the experiment on YAP-TEAD) was at least 6.00 each time.
As to `C[C@@H](NC(=O)c1ccc2c(c1)c1nn(C)cc1c(=O)n2-c1ccc(C(F)(F)F)cc1)c1ccc(F)cn1` [Example T-127], the negative-log IC50 (pIC50) (in experiment [1]; in the experiment on YAP-TEAD) was 5.30 to 6.00 throughout.
Consider `C[C@H](NC(=O)c1ccc2c(c1)c1nn(C)cc1c(=O)n2-c1ccc(C(F)(F)F)cc1)c1cc(Cl)ccn1` [Example T-128], for which the negative-log IC50 (pIC50) (in experiment [1]; in the experiment with YAP-TEAD) was at least 6.00 in each case.
For `C[C@H](NC(=O)c1ccc2c(c1)c1nn(C)cc1c(=O)n2-c1ccc(C(F)(F)F)cc1)c1ccc(Cl)cn1` [Example T-130], the pIC50 (in experiment [1]; with YAP-TEAD) was 5.30 to 6.00 throughout.
Turning to `C[C@H](NC(=O)c1ccc2c(c1)c1nn(C)cc1c(=O)n2-c1ccc(C(F)(F)F)cc1)c1cccc(Cl)n1` [Example T-132], the negative logarithm of the IC50 (pIC50) (in experiment [1]; in the experiment with YAP-TEAD) was 5.30 to 6.00 in each case.
For the molecule `Cn1cc2c(=O)n(-c3ccc(C(F)(F)F)cc3)c3ccc(C(=O)NCc4ccncn4)cc3c2n1` [Example T-133], the negative logarithm of the IC50 (pIC50) (in experiment [1]; in the experiment on YAP-TEAD) was 5.30 to 6.00 throughout.
In the case of `COc1cccc([C@H](C)NC(=O)c2ccc3c(c2)c2nn(C)cc2c(=O)n3-c2ccc(C(F)(F)F)cc2)n1` [Example T-134], the pIC50 (in experiment [1]; in the experiment with YAP-TEAD) was at least 6.00 in each case.
Take `COc1cccnc1[C@@H](C)NC(=O)c1ccc2c(c1)c1nn(C)cc1c(=O)n2-c1ccc(C(F)(F)F)cc1` [Example T-135]: the pIC50 (in experiment [1]; in the experiment on YAP-TEAD) was 5.30 to 6.00 throughout.
For the molecule `COc1ccnc([C@@H](C)NC(=O)c2ccc3c(c2)c2nn(C)cc2c(=O)n3-c2ccc(C(F)(F)F)cc2)c1` [Example T-136], the pIC50 (in experiment [1]; in the experiment on YAP-TEAD) was 5.30 to 6.00 in each case.
As to `C[C@H](NC(=O)c1ccc2c(c1)c1nn(C)cc1c(=O)n2-c1ccc(C(F)(F)F)cc1)c1ccccc1` [Example T-138], the pIC50 (in experiment [1]; in the experiment with YAP-TEAD) was at least 6.00 in each case.
On to `Cn1cc2c(=O)n(-c3ccc(C(F)(F)F)cc3)c3ccc(C(=O)NCc4ncccn4)cc3c2n1` [Example T-139], for which the negative logarithm of the IC50 (pIC50) (in experiment [1]; in the experiment on YAP-TEAD) was 5.30 to 6.00 throughout.
For the molecule `Cn1cc2c(=O)n(-c3ccc(C(F)(F)F)cc3)c3ccc(C(=O)NCc4cnccn4)cc3c2n1` [Example T-140], the negative logarithm of the IC50 (pIC50) (in experiment [1]; in the experiment on YAP-TEAD) was 5.30 to 6.00 in each case.
On to `Cn1cc2c(=O)n(-c3ccc(C(F)(F)F)cc3)c3ccc(C(=O)N[C@@H](c4ccccc4)c4ccccn4)cc3c2n1` [Example T-142], for which the negative logarithm of the IC50 (pIC50) (in experiment [1]; in the experiment with YAP-TEAD) was 5.30 to 6.00 throughout.
As to `COc1ccnc([C@H](C)NC(=O)c2ccc3c(c2)c2nn(C)cc2c(=O)n3-c2ccc(C(F)(F)F)cc2)c1` [Example T-143], the pIC50 (in experiment [1]; in the experiment with YAP-TEAD) was 5.30 to 6.00 in each case.
Consider `C[C@H](NC(=O)c1ccc2c(c1)c1nn(C)cc1c(=O)n2-c1ccc(C(F)(F)F)cc1)c1ccc(F)cn1` [Example T-144], for which the negative logarithm of the IC50 (pIC50) (in experiment [1]; in the experiment on YAP-TEAD) was 5.30 to 6.00 in each case.
With `Cc1cccnc1[C@H](C)NC(=O)c1ccc2c(c1)c1nn(C)cc1c(=O)n2-c1ccc(C(F)(F)F)cc1` [Example T-145], the negative logarithm of the IC50 (pIC50) (in experiment [1]; with YAP-TEAD) was at least 6.00 each time.
Regarding `C[C@H](NC(=O)c1ccc2c(c1)c1nn(C)cc1c(=O)n2-c1ccc(C(F)(F)F)cc1)c1cccnc1` [Example T-146], the negative logarithm of the IC50 (pIC50) (in experiment [1]; in the experiment on YAP-TEAD) was 5.30 to 6.00 throughout.
For the molecule `C[C@H](NC(=O)c1ccc2c(c1)c1nn(C)cc1c(=O)n2-c1ccc(C(F)(F)F)cc1)c1cccc(N)n1` [Example T-148], the pIC50 (in experiment [1]; in the experiment with YAP-TEAD) was at least 6.00 throughout.
Regarding `CNc1cccc([C@H](C)NC(=O)c2ccc3c(c2)c2nn(C)cc2c(=O)n3-c2ccc(C(F)(F)F)cc2)n1` [Example T-149], the negative logarithm of the IC50 (pIC50) (in experiment [1]; in the experiment on YAP-TEAD) was at least 6.00 in each case.
With `C[C@H](NC(=O)c1ccc2c(c1)c1nn(C)cc1c(=O)n2-c1ccc(C(F)(F)F)cc1)c1cccc(N(C)C)n1` [Example T-150], the pIC50 (in experiment [1]; in the experiment on YAP-TEAD) was at least 6.00 throughout.
Take `Cc1cccc([C@H](C)NC(=O)c2ccc3c(c2)c2nn(C)cc2c(=O)n3-c2ccc(C(F)(F)F)cc2)n1` [Example T-151]: the negative logarithm of the IC50 (pIC50) (in experiment [1]; in the experiment with YAP-TEAD) was at least 6.00 throughout.
For the molecule `C[C@H](NC(=O)c1ccc2c(c1)c1nn(C)cc1c(=O)n2-c1ccc(C(F)(F)F)cc1)c1cccc(C#N)n1` [Example T-152], the pIC50 (in experiment [1]; in the experiment on YAP-TEAD) was at least 6.00 throughout.
Take `C[C@H](NC(=O)c1ccc2c(c1)c1nn(C)cc1c(=O)n2-c1ccc(C(F)(F)F)cc1)c1cccc(F)n1` [Example T-153]: the pIC50 (in experiment [1]; with YAP-TEAD) was at least 6.00 each time.
For the molecule `C[C@H](NS(=O)(=O)c1ccc2c(c1)c1nn(C)cc1c(=O)n2-c1ccc(C(F)(F)F)cc1)c1ccccc1` [Example T-165], the negative-log IC50 (pIC50) (in experiment [1]; in the experiment with YAP-TEAD) was 5.30 to 6.00 in each case.
For `C[C@H](NS(=O)(=O)c1ccc2c(c1)c1nn(C)cc1c(=O)n2-c1ccc(S(F)(F)(F)(F)F)cc1)c1ccccn1` [Example T-166], the pIC50 (in experiment [1]; in the experiment on YAP-TEAD) was 5.30 to 6.00 each time.
In the case of `C[C@H](NS(=O)(=O)c1ccc2c(c1)c1nn(C)cc1c(=O)n2-c1ccc(OC(F)(F)F)cc1)c1ccccn1` [Example T-167], the pIC50 (in experiment [1]; in the experiment on YAP-TEAD) was 5.30 to 6.00 in each case.
For `C[C@@H](C(=O)Nc1ccc2c(c1)c1nn(C)cc1c(=O)n2-c1ccc(C(F)(F)F)cc1)c1ccccn1` [Example T-168], the pIC50 (in experiment [1]; in the experiment on YAP-TEAD) was 5.30 to 6.00 throughout.
On to `C[C@H](C(=O)Nc1ccc2c(c1)c1nn(C)cc1c(=O)n2-c1ccc(C(F)(F)F)cc1)c1ccccn1` [Example T-169], for which the pIC50 (in experiment [1]; with YAP-TEAD) was 5.30 to 6.00 each time.
With `Cn1cc2c(=O)n(-c3ccc(C(F)(F)F)cc3)c3ccc(NC(=O)c4ccccn4)cc3c2n1` [Example T-170], the pIC50 (in experiment [1]; with YAP-TEAD) was at least 6.00 throughout.
As for `Cn1cc2c(=O)n(-c3ccc(C(F)(F)F)cc3)c3ccc(NC(=O)c4ccccc4)cc3c2n1` [Example T-171], the negative-log IC50 (pIC50) (in experiment [1]; in the experiment with YAP-TEAD) was at least 6.00 in each case.
In the case of `C=CC(=O)Nc1ccc2c(c1)c1nn(C)cc1c(=O)n2-c1ccc(C(F)(F)F)cc1` [Example T-172], the negative logarithm of the IC50 (pIC50) (in experiment [1]; in the experiment with YAP-TEAD) was at least 6.00 throughout.
On to `Cn1cc2c(=O)n(-c3ccc(C(F)(F)F)cc3)c3ccc(NC(=O)CCCCl)cc3c2n1` [Example T-173], for which the pIC50 (in experiment [1]; with YAP-TEAD) was 5.30 to 6.00 each time.
For `Cn1cc2c(=O)n(-c3ccc(C(F)(F)F)cc3)c3ccc(NC(=O)C(F)(F)F)cc3c2n1` [Example T-174], the pIC50 (in experiment [1]; in the experiment with YAP-TEAD) was at least 6.00 each time.
